Source: patent publication US6825230B2, “Spiro and dispiro 1,2,4-trixolane antimalarials” (Medicines for Malaria Venture MMV, priority 2002, dated 2004)
≈ marks a conversion by molar mass, not a printed value.

Experiments:
[1] = system: Schistosoma mansoni adult worms (49-day-old); assay: Effect on adult schistosomes (49-day-old) in infected mice; format: in vivo; settings: for % reduction of adult worms growth at day 49 after per os application of 400 mg/kg, TWR (%) / Adult worms day 49, per os 400 mg/kg, DEAD WORM (%): single 400 mg/kg per os
Method: Mice were infected with 100 Schistosoma mansoni cercariae on day 49 post-treatment. Each group was treated per os with OZ compounds at single doses of 200, 400, and 600 mg/kg. Untreated mice served as the control. All groups were killed 4 weeks after treatment and the liver and intestine were removed and separated. The liver and intestine were compressed and alive male and female worms could be seen and counted.

[2] = system: Schistosoma mansoni 21-day-old schistosomules; assay: Effect on 21-day-old schistosomules in infected mice; format: in vivo; settings: for % reduction of schistosomule growth at day 21 after per os application of 200 mg/kg, FWR (%): female worm reduction rate
Method: Mice were infected with 100 Schistosoma mansoni cercariae on day 21 post-treatment. Each group was treated per os with trioxolanes at a single dose of 200 mg/kg. […] All groups were killed 4 weeks after treatment and the liver and intestine were removed and separated. The liver and intestine were compressed and alive male and female worms could be seen and counted. The effect of the compounds was evaluated by mean total and female worm burden.

[3] = system: chloroquine-resistant K1 strain of P. falciparum; assay: In vitro antimalarial semiautomated microdilution assay ([3H]-hypoxanthine incorporation), K1 strain; format: cell-based, Plasmodium falciparum; settings: Plasmodium falciparum, K1, 72 h, read-out: IC50 (ng/ml) K1, chloroquine-resistant K1 strain, 72 h incubation
Outline: (§1)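 Logit regression analysis yields the fifty percent inhibitory concentration. Compounds are tested by semiautomated microdilution on intraerythrocytic parasites drawn from asynchronous stock cultures, measuring [3H]-hypoxanthine incorporation.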

[4] = system: ANKA strain of P. berghei; assay: Single dose STI in vivo screen in infected mice; parameters: species or system Plasmodium berghei; settings: for Survival (days) 10 mg/kg po: single 10 mg/kg po in 3% ethanol and 7% Tween 80; for Survival (days) 10 mg/kg po / Survival (days) 10 mg/kg SSV po / Survival (days) 10 mg/kg sc: untreated 6-7 days; for Activity (%) 10 mg/kg po: single 10 mg/kg po in 3% ethanol and 7% Tween 80 on day 1 post-infection; for Activity (%) 10 mg/kg po / Activity (%) 10 mg/kg SSV po / Activity (%) 10 mg/kg sc: percent reduction in parasitemia on day 3; for Survival (days) 10 mg/kg SSV po: single 10 mg/kg po in SSV; for Activity (%) 10 mg/kg SSV po: single 10 mg/kg po in standard suspending vehicle (SSV) on day 1 post-infection; for Survival (days) 10 mg/kg sc: single 10 mg/kg sc in 3% ethanol and 7% Tween 80; for Activity (%) 10 mg/kg sc: single 10 mg/kg sc in 3% ethanol and 7% Tween 80 on day 1 post-infection
[5] = system: chloroquine-sensitive NF54 strain of P. falciparum; assay: In vitro antimalarial semiautomated microdilution assay ([3H]-hypoxanthine incorporation), NF54 strain; format: cell-based, Plasmodium falciparum; settings: Plasmodium falciparum, NF54, 72 h, read-out: IC50 (ng/ml) NF54, chloroquine-sensitive NF54 strain, 72 h incubation
Outline: as §1

[6] = 49-day-old adults, total worm reduction rate
[7] = percentage of dead worm in the liver
[8] = single 200 mg/kg per os, 21-day-old schistosomules
[9] = single 200 mg/kg per os, 21-day-old schistosomules, total worm reduction rate

Structure (SMILES)	% reduction of adult worms growth at day 49 after per os application of 400 mg/kg, TWR (%) [1, 6]	Adult worms day 49, per os 400 mg/kg, DEAD WORM (%) [1, 7]	% reduction of schistosomule growth at day 21 after per os application of 200 mg/kg, FWR (%) [2, 8]	% reduction of schistosomule growth at day 21 after per os application of 200 mg/kg, TWR (%) [2, 9]	other results
C1CCC2(CC1)OOC1(O2)C2CC3CC(C2)CC1C3 (stereo not shown) [OZ03]	29%	8%	74%		% reduction of schistosomule growth at day 21 after per os application of 200 mg/kg, TWR (%) ([2]; po, 200 mg/kg, 504 h): 74%
C1C2CC3CC1CC(C2)C31OOC2(O1)C1CC3CC(C1)CC2C3 (stereo not shown) [OZ04]	0/0%	0/0%	7%	7%	
C1COC2(CCC3(CC2)OOC2(O3)C3CC4CC(C3)CC2C4)O1 (stereo not shown) [OZ10]	28%	13%	73%	66%	% reduction of adult worms growth at day 49 after per os application of 600 mg/kg, TWR (%) ([1]; single 600 mg/kg per os, 49-day-old adults, total worm reduction rate): 21%; Adult worms day 49, per os 600 mg/kg, DEAD WORM (%) ([1]; single 600 mg/kg per os, percentage of dead worm in the liver): 23%
O=C1CC2CC3(CC2C1)OOC1(O3)C2CC3CC(C2)CC1C3 (stereo not shown) [OZ12]	14%	0%	79%	78%	
O=C1C2C3CC4C5C3C1C5C1(OOC3(O1)C1CC5CC(C1)CC3C5)C42 (stereo not shown) [OZ14]	0/0%	0/0%	0%	7%	
CON=C1CCC2(CC1)OOC1(O2)C2CC3CC(C2)CC1C3 (stereo not shown) [OZ15]	0%	10%	70%	63%	
O=C1CCC2(CCO1)OOC1(O2)C2CC3CC(C2)CC1C3 (stereo not shown) [OZ17]	0%	5%	7%		% reduction of schistosomule growth at day 21 after per os application of 200 mg/kg, TWR (%) ([2]; po, 200 mg/kg, 504 h): 23%
CC(C)(C)C1CCC2(CC1)OOC1(O2)C2CC3CC(C2)CC1C3 (stereo not shown) [OZ18]	0/0%	0/0%	9%	12%	
C1CCCCCC2(CCCCC1)OOC1(O2)C2CC3CC(C2)CC1C3 (stereo not shown) [OZ20]	0/0%	0/0%	0%	0%	
O=C1CCC2(CC1)OOC1(CCCCCCCCCCC1)O2 [OZ21]	0/0%	0/0%	0%	0%	
CCOC(=O)N1CCC2(CC1)OOC1(O2)C2CC3CC(C2)CC1C3 (stereo not shown) [OZ23]	0%	4%	84%	90%	
O=C(c1ccccc1)N1CCC2(CC1)OOC1(O2)C2CC3CC(C2)CC1C3 (stereo not shown) [OZ24]	21%	0%	61%	65%	
CCCC1CCC2(CC1)OOC1(O2)C2CC3CC(C2)CC1C3 (stereo not shown) [OZ25]	46%	34%	84%	86%	
O=[N+]([O-])c1ccc(NN=C2CCC3(CC2)OOC2(O3)C3CC4CC(C3)CC2C4)c([N+](=O)[O-])c1 (stereo not shown) [OZ29]	0/0%	0/0%	20%	28%	
c1ccc2c(c1)COC1(CCC3(CC1)OOC1(O3)C3CC4CC(C3)CC1C4)OC2 (stereo not shown) [OZ31]	4/4%	4/4%	63%	60%	
OC1CCC2(CC1)OOC1(O2)C2CC3CC(C2)CC1C3 (stereo not shown) [OZ32]	27%	28%	70%	73%	
CC1(C)COC2(CCC3(CC2)OOC2(CC(C)(C)CC(C)(C)C2)O3)OC1 [OZ36]	0/0%	0/0%	12%	16%	
O=C(O)C1CCC2(CC1)OOC1(O2)C2CC3CC(C2)CC1C3 (stereo not shown) [OZ71]	0%		85%	91%	Adult worms day 49, per os 400 mg/kg, DEAD WORM (%) ([1]; percentage of dead worm in the liver, listed as OZ 71): 16%
C1CC2(CCN1)OOC1(O2)C2CC3CC(C2)CC1C3.Cl (stereo not shown) [OZ80]			75%	79%	% reduction of adult worms growth at day 49 after per os application of 200 mg/kg, TWR (%) ([1]; single 200 mg/kg per os, 49-day-old adults, total worm reduction rate): 0%; Adult worms day 49, per os 200 mg/kg, DEAD WORM (%) ([1]; single 200 mg/kg per os, percentage of dead worm in the liver): 3%
CN1CCN(C(=O)N2CCC3(CC2)OOC2(O3)C3CC4CC(C3)CC2C4)CC1 (stereo not shown) [OZ157, Adamantane-2-spiro-3′-8′-[(4′-methyl-1′-piperazinyl)carbonyl]-1′,2′,4′-trioxa-8′-azaspiro[4.5]decane]			68%	65%	IC50 [3]: 0.2 ng/mL (≈ 0.511 nM); Survival (days) 10 mg/kg po [4]: 7.3 days; Activity (%) 10 mg/kg po [4]: 90%; Survival (days) 10 mg/kg SSV po [4]: 8.3 days; Activity (%) 10 mg/kg SSV po [4]: 80%; Survival (days) 10 mg/kg sc [4]: 8.3 days; Activity (%) 10 mg/kg sc [4]: 97%; IC50 [5]: 0.22 ng/mL (≈ 0.562 nM)
C1CCN(C2CCC3(CC2)OOC2(O3)C3CC4CC(C3)CC2C4)CC1 (stereo not shown) [OZ159]			19%	19%	IC50 [3]: 0.7 ng/mL (≈ 2.01 nM); Survival (days) 10 mg/kg po [4]: 6.7 days; Activity (%) 10 mg/kg po [4]: 34%; Survival (days) 10 mg/kg SSV po [4]: 6.7 days; Activity (%) 10 mg/kg SSV po [4]: 31%; Survival (days) 10 mg/kg sc [4]: 9.0 days; Activity (%) 10 mg/kg sc [4]: 98%; IC50 [5]: 0.94 ng/mL (≈ 2.71 nM)
c1ccc(CNC2CCC3(CC2)OOC2(O3)C3CC4CC(C3)CC2C4)cc1 (stereo not shown) [OZ160]			0%	0%	IC50 [3]: 0.7 ng/mL (≈ 1.89 nM); Survival (days) 10 mg/kg po [4]: 6.3 days; Activity (%) 10 mg/kg po [4]: 45%; Survival (days) 10 mg/kg SSV po [4]: 6.7 days; Activity (%) 10 mg/kg SSV po [4]: 43%; Survival (days) 10 mg/kg sc [4]: 12.0 days; Activity (%) 10 mg/kg sc [4]: 99.94%; IC50 [5]: 0.87 ng/mL (≈ 2.35 nM)
C1C2CC3CC1CC(C2)C31OOC2(CCC3(CC2)OOC2(O3)C3CC4CC(C3)CC2C4)O1 (stereo not shown) [OZ169, Adamantane-2-spiro-3′-1′,2′,4′,9′,10′,12′-hexaoxadispiro[4.2.4.2]tetradecane-11′-spiro-2″-adamantane]			0%	0%	IC50 [3]: 15 ng/mL (≈ 33.7 nM); Survival (days) 10 mg/kg po [4]: 7.7 days; Activity (%) 10 mg/kg po [4]: 98%; Survival (days) 10 mg/kg SSV po [4]: 6.7 days; Activity (%) 10 mg/kg SSV po [4]: 22%; Survival (days) 10 mg/kg sc [4]: 9.0 days; Activity (%) 10 mg/kg sc [4]: 99.76%; IC50 [5]: > 10 ng/mL
